According to US20250250264A1, “KIF18A INHIBITOR AND USE THEREOF” (Wuhan Humanwell Innovative Drug Research and Development …, priority 2022, published 2025):
Where two headings read alike, the source gives them in different places.

How the values were obtained:
[1] = target: recombinant protein KIF18A (kinesin domain: aa 1-467) (Homo sapiens (Human), UniProt Q8NI77); assay: Assay on inhibition of KIF18A enzymatic activity (ADP-Glo); type: biochemical; details: KIF18A 80 nM, ATP 80 μM, 3 h at room temperature, ADP-Glo luminescence; read-out: IC50 (μM), inhibitory effects of compounds on KIF18A enzymatic activity
Source text: The recombinant protein KIF18A (kinesin domain: aa 1-467) used in this assay was expressed by the Bac-to-Bac baculovirus expression system from Invitrogen, and the resulting protein was purified for use in this assay (Seki, M. et al. 2003 Nucleic Acids Res.). Quantitative detection of KIF18A enzymatic activity was completed using an ADP-Glo™ kinase assay kit (Promega Inc). Related procedures strictly followed the product instructions, which are briefly described as follows:
The reaction system consisted of a test compound, the recombinant protein KIF18A (aa 1-467), ATP (Promega Inc), and an assay buffer. The test compound was prepared into a 0.5 mM stock solution using DMSO (Sigma Inc) and then serially diluted in DMSO. The assay buffer consisted of an aqueous solution of 15 mM Tris, 10 mM MgCl2 (Sigma Inc), 0.01% Pluronic F-68 (Life Technologies Inc), 1 μM paclitaxel (Cytoskeleton Inc), 30 μg/mL porcine tubulin (Cytoskeleton Inc), and 2% DMSO. The KIF18A protein (final concentration: 80 nM) and the compound at different concentrations (1 μL) were added to the prepared assay buffer (50 μL), and the mixture was incubated at room temperature for 15 min. Then, ATP (final concentration: 80 μM) was added to the reaction mixture, and the resulting mixture was incubated at room temperature for 3 h. After the reaction was completed, 5 μL of the ADP-Glo™ reagent and 2.5 μL of the reaction mixture were added to a 384-well plate (Grenier Inc). The resulting mixture was mixed homogeneously, then sealed by an aluminum foil sealing film, and incubated at room temperature in the dark for 40 min. Finally, 10 μL of the […] was added to each reaction well, and the mixture was incubated at room temperature in the dark for 40 min. After all reactions were completed, the luminescence values of the wells were read on a microplate reader (Molecular Device_SpectraMax Id5), and the inhibition ratios were calculated. The calculation formula for the inhibition rates was as follows: inhibition rate=(1−(compound group−blank group)/(negative control group−blank group))×100%. Then, based on the inhibition rates at different compound concentrations, the IC50 value of the test compound was calculated using the GraphPad Prism 8 software.

NIH:OVCAR-3 cells = assay: Assay on inhibition of OVCAR3 tumor cell proliferation (CellTiter-Glo); type: cell-based; details: 3 days of drug treatment, read-out: IC50 (μM), inhibitory effects of compounds on tumor cell proliferation
Procedure: NIH:OVCAR-3 cells (ATCC, Cat No. HTB-161, purchased from Co-Bier) were seeded into a T75 culture flask and cultured in an RPMI 1640 medium containing 20% FBS for 3 days in preparation for subsequent culturing and seeding into a 96-well plate for the cell proliferation assay.
The OVCAR3 cells were seeded at a density of 3000 cells/100 μL/well into the 96-well cell plate, and then the plate was incubated in an incubator (37° C., 5% CO2) for 18 h. On the second day, drug treatment was started. Serially diluted test compound solutions (each drug starting at a concentration of 10 μM, diluted in DMSO, with a dilution ratio of 1:3, and nine gradient points for each drug) or DMSO (negative control) was added to the medium in the plate at 100 μL/well, and a blank group was set up with only medium, but no seeded cell strains. After the drug addition, the plate was incubated in the incubator for another 3 days (37° C., 5% CO2). On the fourth day, plate detection was performed. To each well, 100 μL of CellTiter-Glo reagent (Promega G9243) was added. The plate was shaken for 5 min and then left to stand at room temperature for 5 min. The chemical luminescence signal value of each well was determined using a microplate reader (PerkinElmer EnVision®2104). Cell proliferation inhibition rate=(1−(compound group−blank group)/(DMSO group−blank group))×100%. Then, the IC50 value of each compound was calculated using the GraphPad Prism 8 software.

Sequence of recombinant protein KIF18A (kinesin domain: aa 1-467) (Q8NI77 1-467): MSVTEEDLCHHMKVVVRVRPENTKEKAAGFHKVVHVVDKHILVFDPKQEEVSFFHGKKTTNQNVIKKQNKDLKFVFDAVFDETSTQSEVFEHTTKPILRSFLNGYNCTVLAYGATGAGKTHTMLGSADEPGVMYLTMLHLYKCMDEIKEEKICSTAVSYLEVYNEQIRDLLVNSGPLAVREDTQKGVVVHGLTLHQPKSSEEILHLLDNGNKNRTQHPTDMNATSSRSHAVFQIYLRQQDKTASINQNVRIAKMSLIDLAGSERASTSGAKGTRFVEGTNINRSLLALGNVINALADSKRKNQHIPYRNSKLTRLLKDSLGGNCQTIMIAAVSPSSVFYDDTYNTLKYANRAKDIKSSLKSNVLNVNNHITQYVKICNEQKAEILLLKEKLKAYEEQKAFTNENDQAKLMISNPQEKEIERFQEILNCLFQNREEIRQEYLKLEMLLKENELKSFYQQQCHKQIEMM
Sequence of recombinant protein KIF18A (kinesin domain: aa 1-467) (P02550 whole entry partner, the tested form may be a part): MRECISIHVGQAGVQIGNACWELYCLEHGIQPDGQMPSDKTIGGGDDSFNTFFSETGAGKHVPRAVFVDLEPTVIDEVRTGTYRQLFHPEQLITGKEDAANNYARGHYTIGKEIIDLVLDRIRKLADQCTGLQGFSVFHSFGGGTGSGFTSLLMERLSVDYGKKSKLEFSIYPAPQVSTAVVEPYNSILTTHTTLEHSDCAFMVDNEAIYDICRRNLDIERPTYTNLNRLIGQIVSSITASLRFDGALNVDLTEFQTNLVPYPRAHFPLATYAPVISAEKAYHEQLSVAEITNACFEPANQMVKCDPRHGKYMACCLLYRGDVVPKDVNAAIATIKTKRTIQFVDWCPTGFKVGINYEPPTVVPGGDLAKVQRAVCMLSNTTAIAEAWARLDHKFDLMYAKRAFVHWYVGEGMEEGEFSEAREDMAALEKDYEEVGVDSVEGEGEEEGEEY
Sequence of recombinant protein KIF18A (kinesin domain: aa 1-467) (P02554 whole entry partner, the tested form may be a part): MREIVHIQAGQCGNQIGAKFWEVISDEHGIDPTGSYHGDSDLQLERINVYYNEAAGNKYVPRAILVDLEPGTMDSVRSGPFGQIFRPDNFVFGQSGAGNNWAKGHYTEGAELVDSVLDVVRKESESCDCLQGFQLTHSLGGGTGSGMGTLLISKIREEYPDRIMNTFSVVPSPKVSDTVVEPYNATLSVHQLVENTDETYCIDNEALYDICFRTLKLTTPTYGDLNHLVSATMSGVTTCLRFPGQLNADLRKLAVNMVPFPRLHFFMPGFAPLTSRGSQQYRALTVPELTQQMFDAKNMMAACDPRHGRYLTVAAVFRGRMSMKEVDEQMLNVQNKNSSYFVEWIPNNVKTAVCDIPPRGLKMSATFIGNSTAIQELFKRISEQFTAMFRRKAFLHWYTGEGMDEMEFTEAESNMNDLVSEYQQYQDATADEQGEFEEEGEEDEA

Compound | IC50 [1] | IC50 (NIH:OVCAR-3 cells; Homo sapiens, OVCAR-3, 72 h) | IC50 (NIH:OVCAR-3 cells)
Cc1cc(-c2nnc(-c3ccc(NS(=O)(=O)CCO)cc3N3CCC4(CC3)CC4)o2)nc(N2CCO[C@H](C)C2)c1 [Example I-1, (R)-2-Hydroxy-N-(4-(5-(4-methyl-6-(2-methylmorpholino)pyridin-2-yl)-1,3,4-oxadiazol-2-yl)-3-(6-azaspiro[2.5]octan-6-yl)phenyl)ethane-1-sulfonamide] | 0.033 µM | 0.045 µM | 
Cc1cc(-c2nnc(-c3ccc(NS(=O)(=O)CCO)cc3N3CCC4(CC3)CC4)o2)nc(N2CCC(F)(F)CC2)n1 [Example I-2, N-(4-(5-(2-(4,4-Difluoropiperidin-1-yl)-6-methylpyrimidin-4-yl)-1,3,4-oxadiazol-2-yl)-3-(6-azaspiro[2.5]octan-6-yl)phenyl)-2-hydroxyethane-1-sulfonamide] | 0.002 µM | 0.08 µM | 
Cc1cc(-c2nnc(-c3ccc(NS(=O)(=O)CCO)cc3N3CCC4(CC3)CC4)o2)nc(N2CC(F)(F)C2)n1 [Example I-3, N-(4-(5-(2-(3,3-Difluoroazetidin-1-yl)-6-methylpyrimidin-4-yl)-1,3,4-oxadiazol-2-yl)-3-(6-azaspiro[2.5]octan-6-yl)phenyl)-2-hydroxyethane-1-sulfonamide] | 0.011 µM | 0.051 µM | 
Cc1cc(-c2nnc(-c3ccc(NS(=O)(=O)CCO)cc3N3CCC4(CC3)CC4)o2)nc(N2CCC(F)(F)C2)n1 [Example I-5, N-(4-(5-(2-(3,3-Difluoropyrrolidin-1-yl)-6-methylpyrimidin-4-yl)-1,3,4-oxadiazol-2-yl)-3-(6-azaspiro[2.5]octan-6-yl)phenyl)-2-hydroxyethane-1-sulfonamide] | 0.007 µM | 0.186 µM | 
Cc1cc(-c2nnc(-c3ccc(NS(=O)(=O)CCO)cc3N3CCC4(CC3)CC4)o2)nc(N2CCCC(F)(F)C2)n1 [Example I-7, N-(4-(5-(2-(3,3-Difluoropiperidin-1-yl)-6-methylpyrimidin-4-yl)-1,3,4-oxadiazol-2-yl)-3-(6-azaspiro[2.5]octan-6-yl)phenyl)-2-hydroxyethane-1-sulfonamide] | 0.001 µM | 0.073 µM | 
Cc1cc(-c2nnc(-c3ccc(NS(=O)(=O)CCO)cc3N3CCC4(CC3)CC4)o2)nc(N2CCC(F)CC2)n1 [Example I-8, N-(4-(5-(2-(4-fluoropiperidin-1-yl)-6-methylpyrimidin-4-yl)-1,3,4-oxadiazol-2-yl)-3-(6-azaspiro [2.5]octan-6-yl)phenyl)-2-hydroxyethanesulfonamide] | 0.002 µM | 0.035 µM | 
Cc1cc(-c2nnc(-c3ccc(NS(=O)(=O)CCO)cc3N3CCC4(CC3)CC4)o2)nc(N2CCC3(CC3)C2)n1 [Example I-17, 2-Hydroxy-N-(4-(5-(6-methyl-2-(5-azaspiro[2.4]heptan-5-yl)pyrimidin-4-yl)-1,3,4-oxadiazol-2-yl)-3-(6-azaspiro[2.5]octan-6-yl)phenyl)ethane-1-sulfonamide] | 0.01 µM | 0.56 µM | 
Cc1cc(-c2nnc(-c3ccc(NS(=O)(=O)CCO)cc3N3CCC4(CC3)CC4)o2)nc(OCCC(F)(F)F)n1 [Example I-27, 2-Hydroxy-N-(4-(5-(6-methyl-2-(3,3,3-trifluoropropoxy)pyrimidin-4-yl)-1,3,4-oxadiazol-2-yl)-3-(6-azaspiro[2.5]octan-6-yl)phenyl)ethane-1-sulfonamide] | 0.001 µM | 0.079 µM | 
Cc1cc(-c2nnc(-c3ccc(NS(=O)(=O)[C@H](C)CO)cc3N3CCC4(CC3)CC4)o2)nc(N2CCC(F)(F)CC2)n1 [Example I-40, (R)—N-(4-(5-(2-(4,4-Difluoropiperidin-1-yl)-6-methylpyrimidin-4-yl)-1,3,4-oxadiazol-2-yl)-3-(6-azaspiro[2.5]octan-6-yl)phenyl)-1-hydroxypropane-2-sulfonamide] | 0.011 µM | 0.076 µM | 
Cc1cc(-c2nnc(-c3ccc(NS(=O)(=O)CCO)cc3N3CCC4(CC3)CC4)o2)cc(N2CCC(F)(F)CC2)n1 [Example I-52, N-(4-(5-(2-(4,4-Difluoropiperidin-1-yl)-6-methylpyridin-4-yl)-1,3,4-oxadiazol-2-yl)-3-(6-azaspiro[2.5]octan-6-yl)phenyl)-2-hydroxyethane-1-sulfonamide] | 0.001 µM |  | 0.045 µM
Cc1cc(-c2nnc(-c3ccc(NS(=O)(=O)CCO)cc3N3CCC4(CC3)CC4)o2)c(F)c(N2CCC(F)(F)CC2)n1 [Example I-53] |  | 0.214 µM | 
Cc1cc(-c2nnc(-c3ccc(NS(=O)(=O)CCO)cc3N3CCC4(CC3)CC4)s2)nc(N2CCC(F)(F)CC2)n1 [Example I-77, N-(4-(5-(2-(4,4-Difluoropiperidin-1-yl)-6-methylpyrimidin-4-yl)-1,3,4-thiadiazol-2-yl)-3-(6-azaspiro[2.5]octan-6-yl)phenyl)-2-hydroxyethane-1-sulfonamide] | 0.002 µM | 0.12 µM | 
Cc1cc(-n2cc(-c3ccc(NS(=O)(=O)CCO)cc3N3CCC4(CC3)CC4)cn2)nc(N2CCC(F)(F)CC2)n1 [Example I-81, N-(4-(1-(2-(4,4-Difluoropiperidin-1-yl)-6-methylpyrimidin-4-yl)-1H-pyrazol-4-yl)-3-(6-azaspiro[2.5]octan-6-yl)phenyl)-2-hydroxyethane-1-sulfonamide] |  | 0.393 µM | 
Cc1cc(-c2nnc(-c3ccc(NS(=O)(=O)CCO)cc3N3CCC4(CC3)CC4)o2)nc(N2CCC(C(F)(F)F)C2)n1 (centres unmarked) [Example I-98, N-(4-(5-(6-methyl-2-(3-(trifluoromethyl)pyrrolidin-1-yl)pyrimidin-4-yl)-1,3,4-oxadiazol-2-yl)-3-(6-azaspiro [2.5]octan-6-yl)phenyl)-2-hydroxyethane-sulfonamide] | 0.018 µM |  | 
Cc1cc(-c2nnc(-c3ccc(NS(=O)(=O)CCO)cc3N3CCC4(CC3)CC4)s2)nc(OCCC(F)(F)F)n1 [Example I-99, N-(4-(5-(6-Methyl-2-(3,3,3-trifluoropropoxy)pyrimidin-4-yl)-1,3,4-thiadiazol-2-yl)-3-(6-azaspiro[2.5]octan-6-yl)phenyl)-2-hydroxyethane-1-sulfonamide] |  | 0.205 µM | 
Cc1cc(-c2nnc(-c3ccc(NS(=O)(=O)CCO)cc3N3CCC4(CC3)CC4)o2)nc(N2CCCC(C(F)(F)F)C2)c1 (centres unmarked) [Example I-103, N-(4-(5-(4-Methyl-6-(3-(trifluoromethyl)piperidin-1-yl)pyridin-2-yl)-1,3,4-oxadiazol-2-yl)-3-(6-azaspiro[2.5]octan-6-yl)phenyl)-2-hydroxyethane-1-sulfonamide] | 0.012 µM |  | 
Cc1cc(-c2nnc(-c3ccc(NS(=O)(=O)CCO)cc3N3CCC4(CC3)CC4)o2)nc(N2CCC(C(F)(F)F)C2)c1 (centres unmarked) [Example I-104, N-(4-(5-(4-Methyl-6-(3-(trifluoromethyl)pyrrolidin-1-yl)pyridin-2-yl)-1,3,4-oxadiazol-2-yl)-3-(6-azaspiro[2.5]octan-6-yl)phenyl)-2-hydroxyethane-1-sulfonamide] | 0.013 µM |  | 
Cc1cc(-c2cnn(-c3ccc(NS(=O)(=O)CCO)cc3N3CCC(C)CC3)c2)nc(N2CCC(F)(F)CC2)n1 [Example I-125, N-(4-(4-(2-(4,4-Difluoropiperidin-1-yl)-6-methylpyrimidin-4-yl)-1H-pyrazol-1-yl)-3-(4-methylpiperidin-1-yl)phenyl)-2-hydroxyethane-1-sulfonamide] | 0.005 µM |  | 
